Measured values: patent US9745360B2 (Sanofi, priority 2012, dated 2017)
pEC50: −log10 of the molar value. Read-outs that look alike come from different tables or passages of the source. *1 amine or outer side, *2 acyl side, *3 side chain or, on linkers, in order; H or OH if unused. Where a SMILES comes first, the peptide text is derived from it. Side-chain parts run from the residue outwards. [ ]: non-standard residue; d: D form. The star is where a group is joined. γGlu = O=C(O)[C@H](CCC(=O)[*:2])N[*:1]; Stearoyl = CCCCCCCCCCCCCCCCCC(=O)*; Palmitoyl = CCCCCCCCCCCCCCCC(=O)*; d(αMeK) = C[C@@](N)(CCCCN)C(=O)O; αMeOrn = C[C@](N)(CCCN)C(=O)O; Aib = CC(C)(N)C(=O)O

Key:
[1] = target: T1, human GLP-1 receptor (hGLP-1 R) (Homo sapiens, UniProt P43220); test: cAMP response (HTRF) of HEK-293 cells stably expressing human GLP-1 receptor; type: cell-based; details: Table 7; cAMP formation
T1 construct: expressed in transfected cells
T1 sequence (P43220 24-463): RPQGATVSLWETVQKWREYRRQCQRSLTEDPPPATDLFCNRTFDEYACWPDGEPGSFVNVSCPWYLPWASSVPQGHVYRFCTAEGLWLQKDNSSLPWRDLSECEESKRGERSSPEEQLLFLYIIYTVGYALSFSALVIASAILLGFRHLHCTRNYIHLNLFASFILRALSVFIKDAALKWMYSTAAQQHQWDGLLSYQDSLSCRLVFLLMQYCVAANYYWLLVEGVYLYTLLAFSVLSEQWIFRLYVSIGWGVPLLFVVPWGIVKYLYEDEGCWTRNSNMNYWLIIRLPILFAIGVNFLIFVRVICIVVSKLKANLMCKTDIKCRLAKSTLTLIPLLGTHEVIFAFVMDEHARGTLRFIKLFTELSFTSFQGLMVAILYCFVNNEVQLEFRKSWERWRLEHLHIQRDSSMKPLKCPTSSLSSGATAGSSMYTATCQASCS
Protocol: (§1) cAMP content of cells was determined using a kit from Cisbio Corp. (cat. no. 62AM4PEC) based on HTRF (Homogenous Time Resolved Fluorescence). For preparation, cells were split into T175 culture flasks and grown overnight to near confluency in medium (DMEM/10% FBS). Medium was then removed and cells washed with PBS lacking calcium and magnesium, followed by proteinase treatment with accutase (Sigma-Aldrich cat. no. A6964). Detached cells were washed and resuspended in assay buffer (1×HBSS; 20 mM HEPES, 0.1% BSA, 2 mM IBMX) and cellular density determined. They were then diluted to 400000 cells/ml and 25 μl-aliquots dispensed into the wells of 96-well plates. For measurement, 25 μl of test compound in assay buffer was added to the wells, followed by incubation for 30 minutes at room temperature.

[2] = target: T2, human GIP receptor (hGIP R) (Homo sapiens, UniProt P48546); test: cAMP response (HTRF) of HEK-293 cells stably expressing human GIP receptor; type: cell-based; details: Table 7; cAMP formation
T2 construct: expressed in transfected cells
T2 sequence (P48546 22-466): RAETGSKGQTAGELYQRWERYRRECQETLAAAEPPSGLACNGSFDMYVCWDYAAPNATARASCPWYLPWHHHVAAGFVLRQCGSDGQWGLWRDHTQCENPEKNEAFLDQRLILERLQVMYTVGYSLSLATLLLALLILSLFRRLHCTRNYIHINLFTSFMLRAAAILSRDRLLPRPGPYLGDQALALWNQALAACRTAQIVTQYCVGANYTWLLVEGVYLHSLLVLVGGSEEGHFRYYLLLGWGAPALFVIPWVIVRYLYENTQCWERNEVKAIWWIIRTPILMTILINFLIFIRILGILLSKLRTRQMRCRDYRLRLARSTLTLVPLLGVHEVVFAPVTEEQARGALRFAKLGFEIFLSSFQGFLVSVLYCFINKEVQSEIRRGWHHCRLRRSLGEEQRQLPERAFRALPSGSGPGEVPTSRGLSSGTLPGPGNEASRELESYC
Protocol: as §1

[3] = target: T3, human glucagon receptor (hGLUC R) (Homo sapiens, UniProt P47871); test: cAMP response (HTRF) of HEK-293 cells stably expressing human glucagon receptor; type: cell-based; details: Table 7; cAMP formation
T3 construct: expressed in transfected cells
T3 sequence (P47871 26-477): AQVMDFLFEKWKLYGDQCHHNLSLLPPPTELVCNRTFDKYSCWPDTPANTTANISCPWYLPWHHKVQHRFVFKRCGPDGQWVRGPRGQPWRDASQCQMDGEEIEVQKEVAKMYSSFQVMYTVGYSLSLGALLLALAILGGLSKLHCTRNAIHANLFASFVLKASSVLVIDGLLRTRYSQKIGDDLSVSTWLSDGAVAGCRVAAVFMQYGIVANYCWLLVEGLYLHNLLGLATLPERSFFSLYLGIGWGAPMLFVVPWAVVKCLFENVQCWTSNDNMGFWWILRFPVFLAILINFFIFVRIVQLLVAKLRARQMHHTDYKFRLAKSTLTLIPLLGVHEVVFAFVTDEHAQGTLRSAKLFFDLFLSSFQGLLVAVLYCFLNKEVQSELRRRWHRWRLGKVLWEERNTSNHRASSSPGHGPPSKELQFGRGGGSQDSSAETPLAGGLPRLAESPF
Protocol: as §1

[4] = Solubility testing in buffer, HPLC-UV of supernatant; type: physicochemical; details: buffer, target concentration 1.0 mg/mL
Protocol: (§2) Solubility and chemical stability of peptidic compounds were assessed as described in Methods.

[5] = Chemical stability in solution, 7 days at 25° C., % remaining peptide; type: physicochemical; details: % remaining peptide after 7 days at 25° C.
Protocol: The chemical stability is expressed as “% remaining peptide”.
as §2

[6] = Pharmacokinetic testing in mice, s.c., LC/MS of plasma; type: in vivo; details: mouse, sc, 1 mg/kg s.c.
Protocol: Mice were dosed 1 mg/kg subcutaneously (s.c.).
Pharmacokinetic profiles were determined as described in Methods.

[7] = system: non-fasted female diabetic dbdb-mice; test: Glucose lowering in non-fasted female diabetic dbdb-mice; type: in vivo; details: 3 μg/kg s.c., at 240 min, kept to 480 min, baseline 20-22 mmol/l
Description: Female diabetic dbdb-mice of mean non-fasted glucose value of 20-22 mmol/l and a body weight of 42 g+/−0.6 g (SEM) were used. Mice were individually marked and were adapted to housing conditions for at least one week.
3-5 days prior to study start mice were assigned to groups and cages (4 mice per cage, 8 per group, control group 16) according to their non-fasted glucose values to ensure even distribution of lower and higher values between groups (stratification). On the study day, mice were weighed and dosed (t=0). Immediately prior to compound administration feed was removed while water remained available, and a first blood sample at a tail incision was drawn (baseline). Further blood samples were drawn at the tail incision at 30, 60, 90, 120, 240, 360, and 480 min.
Statistical analyses are performed with Everstat Version 6.0 based on SAS by 2-way-ANOVA on repeated measures, followed by Dunnett's post-hoc test against vehicle-control. Differences are considered statistically significant at the p<0.05 level.

| SMILES | pEC50 [1] | pEC50 [2] | pEC50 [3] | solubility at 2 h ([4]; pH 4.5, read-out: Solubility (pH 4.5)) [µg/mL] | solubility at 2 h ([4]; pH 7.4, read-out: Solubility (pH 7.4)) [µg/mL] | Stability (pH 4.5) ([5]; pH 4.5) [%] | Stability (pH 7.4) ([5]; pH 7.4) [%] | Cmax [6] [ng/mL] | half-life [6] [h] | maximal effect, glucose reduction [7] [mmol/L] |
| --- | --- | --- | --- | --- | --- | --- | --- | --- | --- | --- |
| CCCCCCCCCCCCCCCC(=O)N[C@@H](CCC(=O)NCCCC[C@H](NC(=O)[C@H](CCC(N)=O)NC(=O)[C@@H](NC(=O)[C@H](CO)NC(=O)[C@H](CC(C)C)NC(=O)[C@H](CC(=O)O)NC(=O)[C@H](CO)NC(=O)[C@@H](NC(=O)[C@H](Cc1ccccc1)NC(=O)[C@@H](NC(=O)CNC(=O)[C@H](CCC(=O)O)NC(=O)C(C)(C)NC(=O)[C@@H](N)Cc1ccc(O)cc1)[C@@H](C)O)[C@@H](C)O)[C@@H](C)CC)C(=O)N[C@@H](CCC(=O)O)C(=O)N[C@@H](CCC(=O)O)C(=O)N[C@@H](CCCNC(=N)N)C(=O)N[C@@H](C)C(=O)N[C@@H](C)C(=O)N[C@](C)(CCCCN)C(=O)N[C@@H](CCC(=O)O)C(=O)N[C@@H](Cc1ccccc1)C(=O)N[C@H](C(=O)N[C@@H](CCC(=O)O)C(=O)N[C@@H](Cc1c[nH]c2ccccc12)C(=O)N[C@@H](CC(C)C)C(=O)N[C@@H](CCCCN)C(=O)N[C@@H](CC(N)=O)C(=O)N[C@H](C(=O)NCC(=O)N1CCC[C@H]1C(=O)N[C@@H](CO)C(=O)N[C@@H](CO)C(=O)NCC(=O)N[C@@H](C)C(=O)N1CCC[C@H]1C(=O)N1CCC[C@H]1C(=O)N1CCC[C@H]1C(=O)N[C@@H](CO)C(N)=O)[C@@H](C)O)[C@@H](C)CC)C(=O)O [SEQ ID NO: 9, Y-Aib-E-G-T-F-T-S-D-L-S-I-Q-K(γE-x53)-E-E-R-A-A-(R)MeLys-E-F-I-E-W-L-K-N-T-G-P-S-S-G-A-P-P-P-S-NH2] (H-Y[Aib]EGTFTSDLSIQK([γGlu-Palmitoyl])EERAA[d(αMeK)]EFIEWLKNTGPSSGAPPPS-NH2) | 10.87 | 10.03 | < 6.00 |  |  |  |  |  |  |  |
| CCCCCCCCCCCCCCCCCC(=O)N[C@@H](CCC(=O)NCCCC[C@H](NC(=O)[C@H](CCC(N)=O)NC(=O)[C@@H](NC(=O)[C@H](CO)NC(=O)[C@H](CC(C)C)NC(=O)[C@H](CC(=O)O)NC(=O)[C@H](CO)NC(=O)[C@@H](NC(=O)[C@H](Cc1ccccc1)NC(=O)[C@@H](NC(=O)CNC(=O)[C@H](CCC(N)=O)NC(=O)C(C)(C)NC(=O)[C@@H](N)Cc1ccc(O)cc1)[C@@H](C)O)[C@@H](C)O)[C@@H](C)CC)C(=O)N[C@@H](CC(=O)O)C(=O)N[C@@H](CCC(=O)O)C(=O)N[C@@H](CCC(N)=O)C(=O)N[C@@H](CCCNC(=N)N)C(=O)N[C@@H](C)C(=O)N[C@@](C)(CCCN)C(=O)N[C@@H](CCC(=O)O)C(=O)N[C@@H](Cc1ccccc1)C(=O)N[C@H](C(=O)N[C@@H](CCC(=O)O)C(=O)N[C@@H](Cc1c[nH]c2ccccc12)C(=O)N[C@@H](CC(C)C)C(=O)N[C@@H](CCCCN)C(=O)N[C@@H](C)C(=O)NCC(=O)NCC(=O)N1CCC[C@H]1C(=O)N[C@@H](CO)C(=O)N[C@@H](CO)C(=O)NCC(=O)N[C@@H](C)C(=O)N1CCC[C@H]1C(=O)N1CCC[C@H]1C(=O)N1CCC[C@H]1C(=O)N[C@@H](CO)C(N)=O)[C@@H](C)CC)C(=O)O [SEQ ID NO: 15, Y-Aib-Q-G-T-F-T-S-D-L-S-I-Q-K(γE-x70)-D-E-Q-R-A-(S)MeOrn-E-F-I-E-W-L-K-A-G-G-P-S-S-G-A-P-P-P-S-NH2] (H-Y[Aib]QGTFTSDLSIQK([γGlu-Stearoyl])DEQRA[αMeOrn]EFIEWLKAGGPSSGAPPPS-NH2) | 10.79 | 11.05 |  | > 1000 | > 1000 | 98.0 | 98.0 | 3740 | 2.9 | ~12 |
